# Reference: US9012443B2 (Amgen Inc., priority 2011, dated 2015)
# Assays:
# [1] = biological target: T1, Nav 1.7 (Homo sapiens (Human), UniProt Q15858); test: Nav 1.7 IWQ in vitro assay (IonWorks Quattro population patch-clamp); type: cell-based; details: for IC50: 293 cells stably transfected with Nav 1.7, second part of table, read-out: Nav1.7 IWQ IC50 IP
# In short: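 HEK293 cells stably expressing Nav 1.7, recorded by automated population patch-clamp with a train of depolarizations producing increasing inactivation. Single compound concentration added during 3–8 min unclamped period, then same protocol repeated. Leak-corrected current at 26th pulse to −20 mV gave percent block (duplicate); IC50 fitted from concentration–block curves.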
# [2] = biological target: T1, Nav 1.7; test: Nav 1.7 in vitro PX assay (PatchXpress whole cell voltage clamp); type: cell-based; details: 293 cells, human Nav1.7, partially inactivated state; read-out: Nav1.7 PX IC50 IP
# In short: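 HEK293 cells stably expressing human Nav1.7, whole-cell voltage clamp on PatchXpress, held at potential giving 20–50% inactivation; current elicited by 20 msec pulse to −10 mV.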
# T1 sequence (Q15858 whole entry): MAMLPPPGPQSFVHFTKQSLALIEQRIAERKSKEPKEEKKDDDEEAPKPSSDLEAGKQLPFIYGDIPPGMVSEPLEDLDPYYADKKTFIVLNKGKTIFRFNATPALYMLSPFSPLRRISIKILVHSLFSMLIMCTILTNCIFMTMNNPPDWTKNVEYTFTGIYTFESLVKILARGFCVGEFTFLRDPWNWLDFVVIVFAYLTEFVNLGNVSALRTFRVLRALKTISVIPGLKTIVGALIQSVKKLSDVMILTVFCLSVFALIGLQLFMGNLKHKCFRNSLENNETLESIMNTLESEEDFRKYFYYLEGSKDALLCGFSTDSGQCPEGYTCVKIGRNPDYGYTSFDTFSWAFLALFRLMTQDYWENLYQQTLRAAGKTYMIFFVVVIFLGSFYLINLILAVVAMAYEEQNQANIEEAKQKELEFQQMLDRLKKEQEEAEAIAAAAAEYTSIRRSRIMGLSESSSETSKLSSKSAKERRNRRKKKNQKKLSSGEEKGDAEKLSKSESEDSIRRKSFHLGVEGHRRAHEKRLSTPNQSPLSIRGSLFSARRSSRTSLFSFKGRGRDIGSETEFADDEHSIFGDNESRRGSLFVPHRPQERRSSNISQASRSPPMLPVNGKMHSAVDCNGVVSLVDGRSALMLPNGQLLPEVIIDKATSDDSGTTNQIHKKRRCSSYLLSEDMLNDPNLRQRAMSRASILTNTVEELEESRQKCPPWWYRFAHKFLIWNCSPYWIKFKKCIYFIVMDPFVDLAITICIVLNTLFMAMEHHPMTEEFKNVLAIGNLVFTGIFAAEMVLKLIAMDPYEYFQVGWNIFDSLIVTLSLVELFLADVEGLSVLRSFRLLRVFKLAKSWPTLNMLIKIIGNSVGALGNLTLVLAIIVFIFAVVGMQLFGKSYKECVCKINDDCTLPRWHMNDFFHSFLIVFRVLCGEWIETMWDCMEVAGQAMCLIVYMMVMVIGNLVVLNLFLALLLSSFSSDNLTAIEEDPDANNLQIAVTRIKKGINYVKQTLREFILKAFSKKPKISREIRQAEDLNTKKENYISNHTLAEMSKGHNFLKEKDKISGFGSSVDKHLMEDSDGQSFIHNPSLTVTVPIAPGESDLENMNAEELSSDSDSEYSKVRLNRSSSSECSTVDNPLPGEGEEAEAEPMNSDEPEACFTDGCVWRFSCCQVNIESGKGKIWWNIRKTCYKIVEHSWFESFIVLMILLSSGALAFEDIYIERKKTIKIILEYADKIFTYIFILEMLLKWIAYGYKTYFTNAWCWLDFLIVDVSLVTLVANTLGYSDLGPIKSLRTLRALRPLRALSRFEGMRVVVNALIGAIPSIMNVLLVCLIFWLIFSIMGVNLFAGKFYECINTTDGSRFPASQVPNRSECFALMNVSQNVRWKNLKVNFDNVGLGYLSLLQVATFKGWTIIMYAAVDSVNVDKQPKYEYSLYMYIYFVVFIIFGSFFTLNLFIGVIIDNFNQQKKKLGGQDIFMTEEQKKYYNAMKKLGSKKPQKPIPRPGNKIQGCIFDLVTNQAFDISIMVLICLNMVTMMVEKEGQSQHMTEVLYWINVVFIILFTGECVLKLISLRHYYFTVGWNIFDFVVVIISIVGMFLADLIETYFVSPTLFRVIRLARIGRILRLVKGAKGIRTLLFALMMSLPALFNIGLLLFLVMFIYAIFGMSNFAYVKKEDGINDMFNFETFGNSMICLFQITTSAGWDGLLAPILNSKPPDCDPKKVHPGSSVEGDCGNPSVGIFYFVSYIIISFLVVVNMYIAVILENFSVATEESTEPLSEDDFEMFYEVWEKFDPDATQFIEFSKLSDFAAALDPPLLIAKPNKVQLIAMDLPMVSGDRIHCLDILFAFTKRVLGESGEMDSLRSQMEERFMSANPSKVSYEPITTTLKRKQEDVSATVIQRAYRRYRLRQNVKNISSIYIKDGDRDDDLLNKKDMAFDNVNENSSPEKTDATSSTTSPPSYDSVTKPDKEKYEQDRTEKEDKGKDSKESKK
SMILES,IC50 [1] [nM],IC50 [2] [nM],Nav1.7 Single Point Data IWQ (at […]) (%) [1] [%]
"O=S(=O)(Nc1ncns1)c1ccc2c(N3CCC[C@@H]3c3cccnc3)cccc2c1 (single isomer, unassigned) [Example 87]",460,1320,
"O=S(=O)(Nc1ncns1)c1ccc2c(N3CCC[C@H]3c3ccncc3)cccc2c1 (single isomer, unassigned) [Example 89]",290,2330,
O=S(=O)(Nc1ncns1)c1ccc2c(N3CCCC3c3cccnc3)cccc2c1 (stereo not shown) [Example 85],10,173,
O=S(=O)(Nc1ncns1)c1ccc2c(N3CCCC3c3ccncc3)cccc2c1 (stereo not shown) [Example 88],20,238,
"O=S(=O)(Nc1ncns1)c1ccc2c(C3CCCN3)cccc2c1 (stereo not shown) [Example 95, 5-(PYRROLIDIN-2-YL)-N-(1,2,4-THIADIAZOL-5-YL)NAPHTHALENE-2-SULFONAMIDE 2,2,2-TRIFLUOROACETATE]",540,7960,
O=C(c1ccccc1)N1CCCC1c1cccc2cc(S(=O)(=O)Nc3nccs3)ccc12 (stereo not shown) [Example 101],1160,11800,
"O=S(=O)(Nc1nccs1)c1ccc2c(C3CCCN3C3CCOCC3)cccc2c1 (stereo not shown) [Example 102, 5-(1-(TETRAHYDRO-2H-PYRAN-4-YL)PYRROLIDIN-2-YL)-N-(THIAZOL-2-YL)NAPHTHALENE-2-SULFONAMIDE 2,2,2-TRIFLUOROACETATE]",110,1540,
"O=S(=O)(Nc1nccs1)c1ccc2c([C@@H]3CCCN3C3CCOCC3)cccc2c1 [Example 103, (S)-5-(1-(TETRAHYDRO-2H-PYRAN-4-YL)PYRROLIDIN-2-YL)-N-(THIAZOL-2-YL)NAPHTHALENE-2-SULFONAMIDE COMPOUND WITH DIETHYLAMINE (1:1)]",1580,14500,
"O=S(=O)(Nc1nccs1)c1ccc2c([C@H]3CCCN3C3CCOCC3)cccc2c1 [Example 104, (R)-5-(1-(TETRAHYDRO-2H-PYRAN-4-YL)PYRROLIDIN-2-YL)-N-(THIAZOL-2-YL)NAPHTHALENE-2-SULFONAMIDE COMPOUND WITH DIETHYLAMINE (1:1)]",80,1990,
N#CCn1c(-c2cccc3cc(S(=O)(=O)Nc4ccncn4)ccc23)cc2cc(F)ccc21 [Example 105],2480,7840,
O=S(=O)(Nc1ncc(F)s1)c1ccc2c(-c3ccc(C(F)(F)F)cc3C3=CCNCC3)cccc2c1 [Example 108],170,210,
O=S(=O)(Nc1ncc(F)s1)c1ccc2c(-c3ccc(C(F)(F)F)cc3C3CCNCC3)cccc2c1 [Example 113],80,118,
CN1CCC(c2cc(C(F)(F)F)ccc2-c2cccc3cc(S(=O)(=O)Nc4ccncn4)ccc23)CC1 [Example 116],70,623,
O=S(=O)(Nc1ccncn1)c1ccc2c(-c3ccc(C(F)(F)F)cc3C3=CCNC3)cccc2c1 [Example 119],20,179,
O=S(=O)(Nc1ccncn1)c1ccc2c(-c3ccc(C(F)(F)F)cc3C3CCNCC3)cccc2c1 [Example 120],10,125,
O=S(=O)(Nc1ccncn1)c1ccc2c(-c3ccc(C(F)(F)F)cc3-n3ccnc3)cccc2c1 [Example 121],30,864,
CN1CCC=C(c2cc(C(F)(F)F)ccc2-c2cccc3cc(S(=O)(=O)Nc4ccncn4)ccc23)C1 [Example 122],40,492,
"O=S(=O)(Nc1nccs1)c1ccc2c(-c3ccc(F)cc3-c3ccncc3)nccc2c1 [Example 126, 1-(4-FLUORO-2-(PYRIDIN-4-YL)PHENYL)-N-(THIAZOL-2-YL)ISOQUINOLINE-6-SULFONAMIDE]",130,2660,
"O=S(=O)(Nc1ccncn1)c1ccc2c(OCc3ncoc3-c3ccccc3)nccc2c1 [Example 130, 1-((5-PHENYLOXAZOL-4-YL)METHOXY)-N-(PYRIMIDIN-4-YL)ISOQUINOLINE-6-SULFONAMIDE]",500,4510,
"C[C@@H](COc1ccc(Cl)cc1)Oc1nccc2cc(S(=O)(=O)Nc3ccncn3)ccc12 [Example 131, (S)-1-((1-(4-CHLOROPHENOXY)PROPAN-2-YL)OXY)-N-(PYRIMIDIN-4-YL)ISOQUINOLINE-6-SULFONAMIDE]",810,4190,
"O=S(=O)(Nc1ccncn1)c1ccc2c(OCCCc3ccc(Cl)cc3)nccc2c1 [Example 132, 1-(3-(4-CHLOROPHENYL)PROPOXY)-N-(PYRIMIDIN-4-YL)ISOQUINOLINE-6-SULFONAMIDE]",870,7900,
"CCC1CCCCN1c1ncnc2cc(S(=O)(=O)Nc3nccs3)ccc12 (stereo not shown) [Example 535, 4-(2-ETHYLPIPERIDIN-1-YL)-N-(THIAZOL-2-YL)QUINAZOLINE-7-SULFONAMIDE]",,,26
"O=S(=O)(Nc1nccs1)c1ccc2c(N3CCCCC3c3cccnc3)ncnc2c1 (stereo not shown) [Example 536, 4-(2-(PYRIDIN-3-YL)PIPERIDIN-1-YL)-N-(THIAZOL-2-YL)QUINAZOLINE-7-SULFONAMIDE]",,,28.3
"O=S(=O)(Nc1nccs1)c1ccc2c(N3CCCC3c3ccccc3)ncnc2c1 (stereo not shown) [Example 537, 4-(2-PHENYLPYRROLIDIN-1-YL)-N-(THIAZOL-2-YL)QUINAZOLINE-7-SULFONAMIDE]",,,41.2
"O=S(=O)(Nc1nccs1)c1ccc2c(N3CCCCC3c3ccccc3)ncnc2c1 (stereo not shown) [Example 538, 4-(2-PHENYLPIPERIDIN-1-YL)-N-(THIAZOL-2-YL)QUINAZOLINE-7-SULFONAMIDE]",,,31.2
"O=S(=O)(Nc1ncns1)c1ccc2c(N3CCCC3c3ccncc3)ncnc2c1 (stereo not shown) [Example 539, 4-(2-(PYRIDIN-4-YL)PYRROLIDIN-1-YL)-N-(1,2,4-THIADIAZOL-5-YL)QUINAZOLINE-7-SULFONAMIDE]",,,20.3
"COc1cc(C(F)(F)F)ccc1-c1c(O)ncc2cc(S(=O)(=O)Nc3nccs3)ccc12 [Example 545, 3-HYDROXY-4-(2-METHOXY-4-(TRIFLUOROMETHYL)PHENYL)-N-(THIAZOL-2-YL)ISOQUINOLINE-7-SULFONAMIDE]",,,23.7

# Further lines, with some results ahead:
IC50 [1] [nM],IC50 [2] [nM],SMILES,Nav1.7 Single Point Data IWQ (at […]) (%) [1] [%]
110,588,"CN1CCN(c2cc(C(F)(F)F)ccc2-c2cccc3cc(S(=O)(=O)Nc4nccs4)ccc23)CC1 [Example 84, 5-(2-(4-METHYLPIPERAZIN-1-YL)-4-(TRIFLUOROMETHYL)PHENYL)-N-(THIAZOL-2-YL)NAPHTHALENE-2-SULFONAMIDE 2,2,2-TRIFLUOROACETATE]",
270,1470,CC1CCCN1c1cccc2cc(S(=O)(=O)Nc3ncns3)ccc12 (stereo not shown) [Example 91],
10,57.2,COc1ccccc1-c1cccc2cc(S(=O)(=O)Nc3ncns3)ccc12 [Example 94],
80,323,O=S(=O)(Nc1ncns1)c1ccc2c(C3CCCN3c3ccccn3)cccc2c1 (stereo not shown) [Example 96],
460,2220,O=S(=O)(Nc1ncns1)c1ccc2c(C3CCCN3Cc3ccccc3)cccc2c1 (stereo not shown) [Example 97],
2220,13000,O=S(=O)(Nc1nccs1)c1ccc2c(C3CCCN3Cc3ccccc3)cccc2c1 (stereo not shown) [Example 98],
1180,4450,"O=S(=O)(Nc1ncns1)c1ccc2c(NCc3ccccc3)cccc2c1 [Example 99, 5-(benzylamino)-N-(1,2,4-thiadiazol-5-yl)naphthalene-2-sulfonamide]",
290,1460,"CN(Cc1ccccc1)c1cccc2cc(S(=O)(=O)Nc3ncns3)ccc12 [Example 100, 5-(benzyl(methyl)amino)-N-(1,2,4-thiadiazol-5-yl)naphthalene-2-sulfonamide]",
1600,3840,Cn1c(-c2cccc3cc(S(=O)(=O)Nc4ccncn4)ccc23)cc2cc(F)ccc21 [Example 106],
330,3320,COc1cc(C(F)(F)F)ccc1-c1cccc2cc(S(=O)(=O)Nc3ncc(F)s3)ccc12 [Example 107],
40,140,Cn1cncc1-c1cc(C(F)(F)F)ccc1-c1cccc2cc(S(=O)(=O)Nc3ncc(F)s3)ccc12 [Example 110],
60,332,Cn1ccnc1-c1cc(C(F)(F)F)ccc1-c1cccc2cc(S(=O)(=O)Nc3ncc(F)s3)ccc12 [Example 111],
100,459,O=S(=O)(Nc1ncc(F)s1)c1ccc2c(-c3ccc(C(F)(F)F)cc3-n3ccnc3)cccc2c1 [Example 112],
820,11300,O=S(=O)(Nc1ccncn1)c1ccc2c(-c3cc4cc(F)ccc4[nH]3)cccc2c1 [Example 114],
180,692,COc1cc(-c2ccccc2)ccc1-c1cccc2cc(S(=O)(=O)Nc3ccncn3)ccc12 [Example 115],
180,2880,CS(=O)(=O)c1cc(C(F)(F)F)ccc1-c1cccc2cc(S(=O)(=O)Nc3ccncn3)ccc12 [Example 117],
30,652,O=S(=O)(Nc1ccncn1)c1ccc2c(-c3ccc(C(F)(F)F)cc3C3(F)CNC3)cccc2c1 [Example 118],
50,516,Cn1cncc1-c1cc(C(F)(F)F)ccc1-c1cccc2cc(S(=O)(=O)Nc3ccncn3)ccc12 [Example 123],
60,502,Cn1ccnc1-c1cc(C(F)(F)F)ccc1-c1cccc2cc(S(=O)(=O)Nc3ccncn3)ccc12 [Example 124],
40,631,COc1cc(C2CC2)ccc1-c1cccc2cc(S(=O)(=O)Nc3ccncn3)ccc12 [Example 125],
